In patent US7888386B2, “3-(phenoxyphenylmethyl)pyrrolidine compounds” (Theravance, Inc., priority 2008, dated 2011):
Like-named read-outs stand apart in the source and are kept apart here.

What was measured:
hSERT = target: T1, hSERT (Homo sapiens, UniProt P31645); assay: hSERT binding assay (Assay 1)
T1 construct: expressed in transfected cells; host or cells: HEK-293 derived cell line, stably transfected; membrane preparation
Description: (§1) Membrane radioligand binding assays were used to measure competitive inhibition of labeled ligand (^3H-citalopram or ^3H-nisoxetine or ^3H-WIN35428) binding to membranes prepared from cells expressing the respective human recombinant transporter (hSERT or hNET or hDAT) in order to determine the pKi values of test compounds at the transporters.
(§2) Recombinant human embryonic kidney (HEK-293) derived cell lines stably transfected with hSERT or hNET, respectively, were grown in DMEM medium supplemented with 10% dialyzed FBS (for hSERT) or FBS (for hNET), 100 μg/ml penicillin, 100 μg/ml streptomycin, 2 mM L-glutamine and 250 μg/ml of the aminoglycoside antibiotic G418, in a 5% CO2 humidified incubator at 37° C. When cultures reached 80% confluence, the cells were washed thoroughly in PBS (without Ca^2+ and Mg^2+) and lifted with 5 mM EDTA in PBS. Cells were pelleted by centrifugation, resuspended in lysis buffer (10 mM Tris-HCl, pH 7.5 containing 1 mM EDTA), homogenized, pelleted by centrifugation, then resuspended in 50 mM Tris-HCl, pH 7.5 and 10% sucrose at 4° C. Protein concentration of the membrane suspension was determined using a Bio-Rad Bradford Protein Assay kit. Membranes were snap frozen and stored at −80° C. Chinese hamster ovary membranes expressing hDAT (CHO-DAT) were purchased from PerkinElmer and stored at −80° C.
(§3) Stock solutions (10 mM in DMSO) of test compound were prepared and serial dilutions made using Dilution Buffer (50 mM Tris-HCl, 120 mM NaCl, 5 mM KCl, pH 7.4, 0.1% BSA, 400 μM ascorbic acid).
(§4) Following a 60 minute incubation at 22° C. (or a period sufficient to reach equilibrium), the membranes were harvested by rapid filtration over a 96-well UniFilter GF/B plate, pretreated with 0.3% polyethyleneimine, and washed 6 times with 300 μl wash buffer (50 mM Tris-HCl, 0.9% NaCl, pH 7.5 at 4° C.). Plates were dried overnight at room temperature, ˜45 μl of MicroScint™-20 (Perkin Elmer) added and bound radioactivity quantitated via liquid scintillation spectroscopy. Competitive inhibition curves and saturation isotherms were analyzed using GraphPad Prism Software package (GraphPad Software, Inc., San Diego, Calif.). IC50 values were generated from concentration response curves using the Sigmoidal Dose Response (variable slope) algorithm in Prism GraphPad.

hNET = target: T2, hNET (Homo sapiens, UniProt P23975); assay: hNET binding assay (Assay 1); details: read-out: NET pKi (converted)
T2 construct: expressed in transfected cells; host or cells: HEK-293 derived cell line, stably transfected; membrane preparation
T2 sequence (P23975 whole entry): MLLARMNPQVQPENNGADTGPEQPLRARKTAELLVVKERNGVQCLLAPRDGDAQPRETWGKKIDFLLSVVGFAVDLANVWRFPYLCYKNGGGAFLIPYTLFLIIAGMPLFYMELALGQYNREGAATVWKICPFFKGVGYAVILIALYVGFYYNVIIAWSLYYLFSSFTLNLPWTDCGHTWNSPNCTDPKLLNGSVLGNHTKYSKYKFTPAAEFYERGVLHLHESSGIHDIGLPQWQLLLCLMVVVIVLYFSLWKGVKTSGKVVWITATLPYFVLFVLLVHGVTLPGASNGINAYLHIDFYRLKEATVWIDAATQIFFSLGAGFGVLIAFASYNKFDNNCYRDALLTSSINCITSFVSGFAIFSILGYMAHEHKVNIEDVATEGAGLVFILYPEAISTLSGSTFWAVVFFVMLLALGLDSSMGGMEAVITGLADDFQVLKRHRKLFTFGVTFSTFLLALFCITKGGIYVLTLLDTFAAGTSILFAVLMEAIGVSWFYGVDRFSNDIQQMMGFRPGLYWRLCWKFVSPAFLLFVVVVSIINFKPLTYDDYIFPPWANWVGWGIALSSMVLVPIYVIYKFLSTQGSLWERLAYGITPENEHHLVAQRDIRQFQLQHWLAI
Description: as §1, §2, §3, §4

[1] = ratio of SERT Ki to NET Ki (binding)
[2] = ratio of binding Ki at hSERT to Ki at hNET, rounded off to the nearest tenth
[3] = membranes of HEK-293 cells expressing hNET, 1.0 nM 3H-nisoxetine
[4] = ratio of binding Ki at SERT to Ki at NET, the tables list only compounds with a ratio in the range 0.1-100
[5] = hNET binding, the tables list only compounds with NET pKi≧8
[6] = ratio of SERT Ki to NET Ki from binding assays

T1 sequence (P31645 whole entry): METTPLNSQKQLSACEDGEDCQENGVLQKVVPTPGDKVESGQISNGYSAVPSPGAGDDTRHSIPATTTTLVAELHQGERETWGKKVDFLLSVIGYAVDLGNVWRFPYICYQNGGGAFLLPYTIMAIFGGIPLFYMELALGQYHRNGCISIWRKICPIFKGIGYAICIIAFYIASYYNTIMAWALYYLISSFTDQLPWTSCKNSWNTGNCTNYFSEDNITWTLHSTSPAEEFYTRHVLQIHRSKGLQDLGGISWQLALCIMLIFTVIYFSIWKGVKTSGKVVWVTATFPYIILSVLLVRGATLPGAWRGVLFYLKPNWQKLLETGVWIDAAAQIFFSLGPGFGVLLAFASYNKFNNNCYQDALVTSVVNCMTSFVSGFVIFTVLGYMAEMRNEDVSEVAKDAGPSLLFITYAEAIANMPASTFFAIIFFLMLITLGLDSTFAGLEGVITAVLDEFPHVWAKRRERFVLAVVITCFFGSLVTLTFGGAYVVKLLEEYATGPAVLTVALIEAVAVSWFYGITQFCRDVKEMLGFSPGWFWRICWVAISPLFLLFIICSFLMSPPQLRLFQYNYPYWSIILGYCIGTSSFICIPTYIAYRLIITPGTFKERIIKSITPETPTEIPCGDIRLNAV

Compound | SERT Ki/NET Ki (hSERT; [1]) | Ki (hNET; hNET binding) [nM] | SERT Ki/NET Ki (hSERT; [2]) | Ki (hNET; [3]) [nM] | other results
Cc1ccc(Cl)c(O[C@H](c2cccc(CO)c2)[C@H]2CCNC2)c1Cl [41-17] | 5 | 1 | – | – | –
Fc1cc(F)cc([C@@H](Oc2cc(Cl)cc(Cl)c2)[C@@H]2CCNC2)c1 [35-17] | 0.2 | 1.58 | – | – | –
Cc1c(Cl)cccc1O[C@H](c1ccccc1)[C@@H]1CCNC1 [Compound 25-22] | – | – | 0.2 | 0.631 | –
Fc1ccc(Oc2cccc(O[C@H](c3ccccc3)[C@@H]3CCNC3)c2)cc1 (racemic) [Compound 21-15] | – | – | 1 | 2 | –
CC(=O)c1cc(F)cc(F)c1O[C@@H](c1ccccc1)[C@H]1CCNC1 [44-6] | – | – | – | – | SERT Ki/NET Ki (hSERT; [4]): 13; Ki (hNET; [5]): 1.58 nM
Fc1c(Cl)ccc(OC(c2ccccc2)C2CCNC2)c1Cl (stereo not shown) [36-10] | 0.1 | 3.16 | – | – | –
c1ccc(COc2ccc(OC(c3ccccc3)C3CCNC3)cc2)cc1 (stereo not shown) [Compound 23-15] | – | – | 2 | 7.94 | –
Clc1cccc(Oc2cccc(OC(c3ccccc3)C3CCNC3)c2)c1 (stereo not shown) [Compound 21-14] | – | – | 0.8 | 5.01 | –
COc1cccc(F)c1O[C@@H](c1ccccc1)[C@H]1CCNC1 [31-16] | – | – | – | – | SERT Ki/NET Ki (hSERT; [6]): 79; Ki (hNET; hNET binding assay): 0.2 nM
Cc1cccc(O[C@@H](c2ccccc2)[C@H]2CCNC2)c1C [Compound 25-24] | – | – | 0.3 | 2.51 | –
Fc1cc(F)cc(C(Oc2cc(F)cc(F)c2F)C2CCNC2)c1 (stereo not shown) [39-3] | 0.4 | 6.31 | – | – | –
Fc1cc(F)cc([C@H](Oc2c(Cl)c(F)cc(F)c2Cl)[C@H]2CCNC2)c1 [48-2] | – | – | – | – | SERT Ki/NET Ki (hSERT; [4]): 10; Ki (hNET; [5]): 0.398 nM
Fc1cc(F)cc(C(Oc2cc(Cl)ccc2F)C2CCNC2)c1 (stereo not shown) [30-2] | – | – | – | – | SERT Ki/NET Ki (hSERT; [6]): 25; Ki (hNET; hNET binding assay): 0.794 nM
COc1ccccc1O[C@H](c1cc(F)cc(F)c1)[C@@H]1CCNC1 [Compound 20-34] | – | – | 1 | 3.98 | –
CC(=O)c1c(F)cccc1OC(c1ccccc1)C1CCNC1 (stereo not shown) [Compound 25-30] | – | – | 10 | 3.16 | –
Cc1ccc(Cl)c(O[C@@H](c2cc(F)cc(F)c2)[C@@H]2CCNC2)c1Cl (racemic) [41-25] | 0.2 | 6.31 | – | – | –
CCC(=O)c1ccccc1OC(c1ccccc1)C1CCNC1 (stereo not shown) [Compound 19-27] | – | – | 100 | 2 | –
N#Cc1cccc([C@@H](Oc2c(F)ccc(F)c2Cl)[C@@H]2CCNC2)c1 [41-33] | 0.4 | 0.794 | – | – | –
Fc1cc(F)c(F)c(OC(c2ccccc2)C2CCNC2)c1 (stereo not shown) [38-2] | 10 | 1.58 | – | – | –
Cc1cccc(Cl)c1OC(c1ccccc1)C1CCNC1 (stereo not shown) [31-11] | – | – | – | – | SERT Ki/NET Ki (hSERT; [6]): 1.3; Ki (hNET; hNET binding assay): 2 nM
Cc1ccc(F)cc1OC(c1ccccc1)C1CCNC1 (stereo not shown) [29-15] | – | – | – | – | SERT Ki/NET Ki (hSERT; [6]): 1.3; Ki (hNET; hNET binding assay): 3.98 nM
COc1ccccc1OC(c1cc(F)cc(F)c1)C1CCNC1 (racemic) [Compound 20-32] | – | – | 10 | 0.794 | –
Fc1cc(Cl)cc(F)c1O[C@@H](c1ccccc1)[C@H]1CCNC1 [44-9] | – | – | – | – | SERT Ki/NET Ki (hSERT; [4]): 0.1; Ki (hNET; [5]): 2.51 nM
N#Cc1cccc([C@H](Oc2c(F)ccc(F)c2Cl)[C@@H]2CCNC2)c1 [41-34] | 0.8 | 7.94 | – | – | –
CCOC(=O)c1cc(Cl)ccc1O[C@@H](c1ccccc1)[C@H]1CCNC1 [27-36] | – | – | – | – | SERT Ki/NET Ki (hSERT; [6]): 0.6; Ki (hNET; hNET binding assay): 3.98 nM

Compound | SERT Ki/NET Ki (hSERT; [1]) | Ki (hNET; hNET binding) [nM] | SERT Ki/NET Ki (hSERT; [2]) | Ki (hNET; [3]) [nM] | other results
Fc1cc(F)cc(C(Oc2cc(Cl)cc(Cl)c2)C2CCNC2)c1 (stereo not shown) [35-14] | 0.3 | 2 | – | – | –
Cc1ccc(F)c(OC(c2ccccc2)C2CCNC2)c1 (stereo not shown) [29-8] | – | – | – | – | SERT Ki/NET Ki (hSERT; [6]): 3.2; Ki (hNET; hNET binding assay): 1.58 nM
c1ccc(Cc2ccccc2OC(c2ccccc2)C2CCNC2)cc1 (stereo not shown) [Compound 19-21] | – | – | 5 | 5.01 | –
c1ccc(-c2ccccc2OC(c2ccccc2)C2CCNC2)cc1 (stereo not shown) [Compound 19-19] | – | – | 32 | 2 | –
COc1ccc(F)cc1OC(c1cc(F)cc(F)c1)C1CCNC1 (stereo not shown) [30-6] | – | – | – | – | SERT Ki/NET Ki (hSERT; [6]): 0.4; Ki (hNET; hNET binding assay): 5.01 nM
Fc1cc(F)cc(C(Oc2c(F)ccc(Cl)c2F)C2CCNC2)c1 (stereo not shown) [41-6] | 1 | 0.501 | – | – | –
Fc1cccc(OC(c2ccccc2)C2CCNC2)c1F (stereo not shown) [Compound 25-1] | – | – | 32 | 0.794 | –
Cc1c(F)cccc1OC(c1ccccc1)C1CCNC1 (racemic) [Compound 25-17] | – | – | 0.2 | 2.51 | –
Fc1ccc(F)c(O[C@@H](c2ccccc2)[C@H]2CCNC2)c1 [29-2] | – | – | – | – | SERT Ki/NET Ki (hSERT; [6]): 32; Ki (hNET; hNET binding assay): 1.26 nM
Fc1cccc(Cl)c1O[C@H](c1ccccc1)[C@@H]1CCNC1 [31-5] | – | – | – | – | SERT Ki/NET Ki (hSERT; [6]): 1.3; Ki (hNET; hNET binding assay): 0.631 nM
Cc1ccc(Cl)c(OC(c2cc(F)cc(F)c2)C2CCNC2)c1Cl (racemic) [41-26] | 1.3 | 0.501 | – | – | –
Clc1cccc(OC(c2cccc(Cl)c2)C2CCNC2)c1 (stereo not shown) [Compound 22-4] | – | – | 0.2 | 7.94 | –
Ic1ccccc1OC(c1ccccc1)C1CCNC1 (stereo not shown) [Compound 19-8] | – | – | 0.6 | 1 | –
CC(C)c1ccccc1OC(c1ccccc1)C1CCNC1 (stereo not shown) [Compound 19-12] | – | – | 16 | 2 | –
COc1ccc(F)c(Cl)c1OC(c1ccccc1)C1CCNC1 (stereo not shown) [40-23] | 0.1 | 3.16 | – | – | –
Fc1ccc(Cl)cc1O[C@@H](c1ccccc1)[C@H]1CCNC1 [29-5] | – | – | – | – | SERT Ki/NET Ki (hSERT; [6]): 16; Ki (hNET; hNET binding assay): 0.501 nM
COc1cc(Cl)ccc1O[C@@H](c1cc(F)cc(F)c1)[C@H]1CCNC1 [28-19] | – | – | – | – | SERT Ki/NET Ki (hSERT; [6]): 0.8; Ki (hNET; hNET binding assay): 1 nM
CC(=O)c1ccccc1O[C@H](c1ccccc1)[C@@H]1CCNC1 (stereo in doubt) [Ex. 9-3, 1-[2-((R)-phenyl-(S)-pyrrolidin-3-yl-methoxy)phenyl]ethanone] | – | – | 50 | 3.16 | –
Fc1cc(F)cc(C(Oc2c(F)ccc(F)c2Cl)C2CCNC2)c1 (stereo not shown) [41-30] | 32 | 0.2 | – | – | –
Cc1ccc(F)cc1OC(c1ccccc1)C1CCNC1 (stereo not shown) [29-16] | – | – | – | – | SERT Ki/NET Ki (hSERT; [6]): 7.9; Ki (hNET; hNET binding assay): 1.58 nM
Fc1cccc(OC(c2ccccc2)C2CCNC2)c1 (stereo not shown) [Compound 21-1] | – | – | 1 | 3.98 | –
Fc1cc(F)cc([C@@H](Oc2c(F)ccc(F)c2Cl)[C@@H]2CCNC2)c1 [41-31] | 0.6 | 0.251 | – | – | –
Cc1cccc(F)c1O[C@@H](c1ccccc1)[C@H]1CCNC1 [31-7] | – | – | – | – | SERT Ki/NET Ki (hSERT; [6]): 5; Ki (hNET; hNET binding assay): 0.2 nM
Cc1ccc(F)c(OC(c2cc(F)cc(F)c2)C2CCNC2)c1F (stereo not shown) [41-7] | 1.3 | 1 | – | – | –
Cc1ccc(F)c(O[C@H](c2ccccc2)[C@@H]2CCNC2)c1Cl [40-29] | 0.4 | 0.2 | – | – | –
